Results reported in article PMC8412337, “Alpha-single chains of collagen type VI inhibit the fibrogenic effects of triple helical collagen VI in hepatic stellate cells” (PLoS ONE, 2021).

Assays:
primary rat HSC [1] = assay: FACS analysis of apoptosis (propidium iodide DNA content); format: cell-based; conditions: serum-starved primary rat HSC; text: within 24 hours, Fig 1C legend: 48 h; propidium iodide; three independent experiments
Description: Activated HSC (third passage) were serum starved for 24 h in standard medium without FBS (starving medium), followed by dissociation with 500 μl 0.05% trypsin-EDTA (Biochrom, Berlin, Germany) and neutralization with 30 ml starving medium containing 1 g/l soybean trypsin inhibitor and 1 g/l ovalbumin. Alternatively, cells were scraped carefully with a cell-scraper (Costar, Cambridge, MA, USA) to exclude any potential effect of trypsin. After centrifugation at 800 x g for 10 min, cells were washed twice with 20 ml PBS (w/o Ca^2+, Mg^2+; Biochrom, Berlin, Germany), resuspended in starving medium and plated at a density of 1.5-2x10^6 in 1.7 ml starving medium in 6-well plates (NUNC, Wiesbaden, Germany). Cells were then treated with starving medium, soluble CI or CVI (both at a final concentration of 30 mg/l), or 10% FBS. For quantification of spreading, cells that had attached were counted 12 hours after plating and spreading efficiency was determined as percentage of plated cells in each group. De-novo DNA synthesis and apoptosis were assessed by morphological criteria, Cell death detection ELISA and FACS analysis as described below. […] After blocking the cells 1h with DMEM+1% FBS, the cells were incubated with primary antibodies against a-actin (Sigma-Aldrich, Taufkirchen, Germany, #A2547; dilution 1:200) and GFAP (Sigma-Aldrich, #G9269; dilution 1:20) followed by a washing step with PBS and the incubation with fluorescence-labeled secondary antibodies (Alexa Fluor 546 & Alexa Fluor 488, Molecular Probes, Eugene, USA, #A11030 & #A11034; dilution 1:100). […] Cells were analyzed by fluorescence microscopy (Zeiss, Jena, Germany; Kodak Ektachrome P1600 and a quantitative staining analysis was performed using Image J software (version 1.50i; National Institutes of Health, Bethesda, […], USA).
10^5 of freshly set cells were treated with starving medium, CI, CVI or 10% FBS for 24 or 48 hours as described before. […] Fixed cells were stained with propidium iodide (50 mg/l) in a final volume of 1 ml before being subjected to fluorescence activated cell sorting (FACS) analysis.

primary rat HSC [2] = assay: Cell Death Detection ELISA (oligonucleosomal DNA fragments); format: cell-based; conditions: OD of sample divided by OD of 10% FBS group, three independent experiments
Description: 10^5 cells were seeded in 6-well plates and treated with starving medium or medium plus CI, CVI or 10% FBS. After 24 or 48 h floating and adherent cells were pooled, and lysed with 500 μl of 1% SDS, 10 mM Tris, pH 7.4 (lysis buffer), for 30 min at 4°C. Lysed cells were transferred to 1.5 ml Eppendorf tubes and centrifuged at 13,000 rpm for 20 min, to separate low molecular weight DNA (oligonucleosome-sized fragments derived from apoptotic cells) from high molecular weight DNA (from viable cells). 400 μl of the supernatant containing oligonucleosomes were transferred to another Eppendorf tube and diluted 1:5 with lysis buffer. 100 μl aliquots were used for the Cell Death Detection ELISA, which was performed according to the manufacturer’s instructions (Boehringer Mannheim, Germany). In brief, antibodies against histones were coated onto 96-wells, 100 μl lysate-samples containing oligonucleotides and histones were added and incubated for one hour. After washing, wells were incubated with anti-double strand DNA antibody coupled to peroxidase for one hour. After reaction with peroxidase substrate, absorbance was measured at 405 nm using an ELISA reader. Background values (lysis-buffer alone) were subtracted, and results are shown as enrichment factor [enrichment factor: OD (optical density) of the sample (apoptotic cells) divided by the OD of the corresponding control (viable cells, 10% FBS-group). A defined positive control was prepared using a hypertonic buffer, containing 10 mM Tris, 400 mM NaCl, 5 mM CaCl2 and 10 mM MgCl2, instead of starving medium.

[3] = system: Bax and Bcl-2 in activated HSCs; assay: Western-blot analysis of Bax and Bcl-2; format: cell-based, rat; conditions: 24 hours culture after serum starvation; densitometry; three independent experiments
Description: Dislodged cells were centrifuged at 800 x g/10 min and lysed with 100 μl lysis buffer. The protein concentration was determined using NanoOrange® Protein Quantitation Kit (Life Technologies) according to the manufacturer’s instructions. Briefly, protein solutions were mixed with the diluted NanoOrange reagent in 1.5 ml polypropylene tubes and heated at 95°C for 10 min in a thermomixer (Peqlab, Erlangen, Germany). Tubes were centrifuged and 200 μl of each sample were transferred to a black 96 well flat-bottom plate (Greiner BioOne, Frickenhausen, Germany). The emitted fluorescence was assessed at 570 nm in a SpectraMax Gemini EM (Molecular Devices, Biberach an der Riß, Germany). Protein concentrations were calculated from a bovine serum albumin standard curve. Equivalent amounts (10–50 μg) of protein were used in […]. Sample buffer (1:1) was added and the aliquots (20 μl final volume) were boiled for 5 min and subjected to 12% SDS-PAGE. After blocking for 1 h at room temperature in 10 mmol Tris-HCl, pH 7.5, 100 mmol NaCl, containing 0.1% Tween 20 and 3% bovine serum albumine (BSA), nitrocellulose-membranes were incubated either with polyclonal rabbit anti-rat antibodies to Bax (1:1000, sc-493), Bcl-2 (1:1000, sc783, both Santa Cruz, Santa Cruz, USA), α-actin (1:4000, A2547, Sigma) or β-actin (1:10,000, A5441, Sigma). Membranes were then washed in 10 mmol Tris-HCl, 100 mmol NaCl, 0.1% Tween 20, pH 7.5, and incubated with anti-rabbit IgG coupled to peroxidase (1:1000, A4416, Sigma) for 1 h at room temperature or directly developed (RC20H). Bands were detected with the ECL chemiluminescence reagent (Amersham-Pharmacia, Freiburg, Germany). After stripping in 0.1 M glycin-HCl, pH 2, for 20 min at room temperature, membranes were reprobed with appropriate primary and secondary antibodies. Band intensities were analyzed by densitometry and normalized to β-actin.

primary rat HSCs = assay: [3H]-thymidine incorporation, de-novo DNA synthesis; format: cell-based; conditions: primary rHSCs; CVI at 10 μg/ml; within 24 hours; three independent experiments
[4] = system: CVI-induced proliferation of CFSC; assay: Inhibition of CVI-induced proliferation by α3(VI)-derived 30-mer peptides, [3H]-thymidine incorporation; format: cell-based, rat; conditions: serum-starved CFSC; 100-fold molar excess of 30-mer peptide compared to CVI; 24 h; n = 4; p<0.05
Description: (§1) 5x10^3CFSC in 100 μl 10% FBS were seeded into a 96-well flat-bottom tissue culture plate (Nunc, Roskilde, Denmark). After 24 hours, medium was completely removed, and cells were rinsed with 200 μl phosphate-buffered saline and 100 μl standard medium containing only 0.25% FBS were added. Cells were cultured for additional 24 h prior to treatment. Synchronized microcultures in 96-well plates were treated for 2 hours in reduction medium. When appropriate, the reduction medium was supplemented with 40 mg/l of α1(VI), α2(VI) or α3(VI). Then, 30 mg/l CVI or CI as control were added and cells were incubated for 24 h after which [^3H]-thymidine was added for additional 24 h. To assess effects of α3(VI)-derived 30-mer peptides on CVI-induced proliferation of CFSC, the reduction medium was supplemented with a 100-fold molar excess of the respective 30-mer peptides compared to CVI. [^3H]-thymidine incorporation was measured as described before. Cells treated with 150 mmol/l HAc or grown in 10% FBS served as negative and positive controls, respectively. During the last 4 hours of treatment, all cultures received 18.5 kBq [^3H]-thymidine (Amersham, Freiburg, Germany). Cells were fixed with 10% trichloroacetic acid and lysed by 200 mmol/l NaOH. After neutralization with 800 mmol/l HCl, lysates were collected to a glassfibre mat and the de-novo DNA synthesis was assessed by liquid scintillation (LKB Wallac, Bromma, Sweden) and the radioactive decay was counted (for) a minute (cpm).

CFSC = assay: Fibrosis-associated gene expression, quantitative real-time PCR; format: cell-based, rat
Description: 30 mg/l CVI, 133 mg/l of the monomeric alpha chains of CVI and/or TGF-β (2 ng/ml) were added after 24 h. […] Reverse transcribed complementary DNA templates were amplified by quantitative real-time polymerase chain reaction (PCR; Roche Diagnostics, Mannheim, Germany) using fluorogenic probes labeled with 6-carboxy-fluorescein and 6-carboxy-tetramethylrhodamin (Sigma- Genosys, Steinheim, Germany) and primer pairs (Invitrogen, Karlsruhe, Germany) specific for fibrosis-associated genes (for sequences see S2 Table). Gene expressions were normalized to glyceraldehyde phosphate dehydrogenase (GAPDH).

[5] = system: CVI-induced proliferation of HSC; assay: Inhibition of CVI-induced proliferation by alpha single chains, [3H]-thymidine incorporation; format: cell-based, rat; conditions: 40 mg/l single chain, then 30 mg/l CVI; 24 h; primary rHSCs, n = three; Fig 4A legend: CFSC, n = 4
Description: as §1

[6] = system: 10% FBS-induced proliferation of HSC; assay: Inhibition of 10% FBS-induced proliferation by alpha single chains, [3H]-thymidine incorporation; format: cell-based, rat; conditions: cells grown in 10% FBS, Fig 4A
Description: as §1

[7] = CFSC, medium containing 0.2% FBS, S3 Fig, one out of two independent experiments

“CI: Human collagen I isolated from placentas by pepsin digestion; served as a control” was tested, and the “percentage of apoptotic cells (FACS)” value (primary rat HSC [1]) was 80%, the “enrichment factor of oligonucleosomal fragments” value (primary rat HSC [2]; after 24 hours) was 5 and the “enrichment factor of oligonucleosomal fragments” value (primary rat HSC [2]; after 48 hours) was 30. For the same substance, the “Bax to Bcl-2 ratio” value [3] was 7.0 and the “de-novo DNA synthesis ([3H]-thymidine incorporation)” value (primary rat HSCs) was “little DNA incorporation”.
For “DGDKGLPGSSGEKGNPGRRGDKGPRGEKGE [A5, α3(VI)-derived synthetic 30-mer peptide]”, the “inhibition of CVI-induced proliferation” value [4] was “no or weaker inhibitory activities”.
For “DGYRGYPGDEGGPGERGPPGVNGTQGFQGC [A2, α3(VI)-derived synthetic 30-mer peptide]”, the “inhibition of CVI-induced proliferation” value [4] was “no or weaker inhibitory activities”.
“DKGPRGEKGERGDVGIRGDPGNPGQDSQER [A6, α3(VI)-derived synthetic 30-mer peptide]” was tested, and the “inhibition of CVI-induced proliferation” value [4] was “no or weaker inhibitory activities”.
With “GAPGERGRTGPLGRKGEPGEPGPKGGIGNP [B6, α3(VI)-derived synthetic 30-mer peptide]” the “inhibition of CVI-induced proliferation” value [4] was “no or weaker inhibitory activities”.
“GFPGEKGEVGEIGLDGLDGEDGDKGLPGSS [A4, α3(VI)-derived synthetic 30-mer peptide]” was tested, and the “inhibition of CVI-induced proliferation” value [4] was “strong growth inhibitory effects”.
“GIRGRRGNSGPPGIVGQKGRPGYPGPAGPR [C4, α3(VI)-derived synthetic 30-mer peptide]” was tested, and the “inhibition of CVI-induced proliferation” value [4] was “strong growth inhibitory effects”.
For “GNPGQDSQERGPKGETGDLGPMGVPGRDGV [B1, α3(VI)-derived synthetic 30-mer peptide]”, the “inhibition of CVI-induced proliferation” value [4] was “strong growth inhibitory effects”.
With “PPGLIGEQGISGPRGSGGARGAPGERGRTG [B5, α3(VI)-derived synthetic 30-mer peptide]” the “inhibition of CVI-induced proliferation” value [4] was “no or weaker inhibitory activities”.
For “RDGVGSEGRRGKKGERGFPGYPGPKGNPGE [C2, α3(VI)-derived synthetic 30-mer peptide]”, the “inhibition of CVI-induced proliferation” value [4] was “strong growth inhibitory effects”.
With TGF-β [reference compound] the “time after which CI expression increased” value (CFSC; [7]) was ~ 8 h, the “time of maximum CI expression” value (CFSC; [7]) was ~ 24 h and the “reduction of the expression of MMP-3” value (CFSC; serum-starved CFSC, 24 h, TGF-β 2 ng/ml, CVI 30 mg/l, qPCR normalized to GAPDH) was ~ 70%.
With “VNGTQGFQGCPGQRGVKGSRGFPGEKGEVG [A3, α3(VI)-derived synthetic 30-mer peptide]” the “inhibition of CVI-induced proliferation” value [4] was “strong growth inhibitory effects”.
In the case of “α1(VI): monomeric alpha 1 single chain of collagen VI isolated from human placentas”, the “effect on CVI-induced expression of αSMA, CI and TGF-β” value (CFSC; serum-starved CFSC, 30 mg/l CVI plus 133 mg/l monomeric alpha chain, 24 h, n = 4) is reported as “some inhibitory effects”, the “inhibition of DNA synthesis in the presence of CVI” value [5] is reported as “did not show any effect” and the “effect on 10% FBS-induced proliferation” value [6] is reported as “had no effect”.
